Measured values as given in PubChem BioAssay (NCI).
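Where inhibition never reached the appropriate level, the endpoint shown equals the highest concentration tested. Otherwise, values were interpolated linearly from a five-concentration, 48-hour dose response in 96-well plates. Here, GI50 denotes the concentration required for 50% inhibition of growth. TGI marks complete inhibition of growth.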

How the values were obtained:
Test in all cases: NCI-60 cell line screen, 48 h
786-0 renal = system: 786-0 renal
A498 renal = system: A498 renal
A549 NSCLC = system: A549 NSCLC
ACHN renal = system: ACHN renal
BT-549 breast = system: BT-549 breast
CAKI-1 renal = system: CAKI-1 renal
CCRF-CEM leukemia = system: CCRF-CEM leukemia
COLO 205 colon = system: COLO 205 colon
DU-145 prostate = system: DU-145 prostate
EKVX NSCLC = system: EKVX NSCLC
HCC-2998 colon = system: HCC-2998 colon
HCT-116 colon = system: HCT-116 colon
HCT-15 colon = system: HCT-15 colon
HL-60(TB) leukemia = system: HL-60(TB) leukemia
HOP-62 NSCLC = system: HOP-62 NSCLC
HOP-92 NSCLC = system: HOP-92 NSCLC
HS 578T breast = system: HS 578T breast
HT29 colon = system: HT29 colon
IGROV1 ovarian = system: IGROV1 ovarian
K-562 leukemia = system: K-562 leukemia
KM12 colon = system: KM12 colon
LOX IMVI melanoma = system: LOX IMVI melanoma
M14 melanoma = system: M14 melanoma
MALME-3M melanoma = system: MALME-3M melanoma
MCF7 breast = system: MCF7 breast
MDA-MB-231 breast = system: MDA-MB-231 breast
MDA-MB-435 = system: MDA-MB-435
MDA-MB-468 breast = system: MDA-MB-468 breast
MOLT-4 leukemia = system: MOLT-4 leukemia
NCI-H226 lung = system: NCI-H226 lung
NCI-H23 lung = system: NCI-H23 lung
NCI-H460 lung = system: NCI-H460 lung
NCI-H522 lung = system: NCI-H522 lung
NCI/ADR-RES ovarian = system: NCI/ADR-RES ovarian
OVCAR-3 ovarian = system: OVCAR-3 ovarian
OVCAR-4 ovarian = system: OVCAR-4 ovarian
OVCAR-5 ovarian = system: OVCAR-5 ovarian
OVCAR-8 ovarian = system: OVCAR-8 ovarian
PC-3 prostate = system: PC-3 prostate
RPMI-8226 leukemia = system: RPMI-8226 leukemia
RXF 393 renal = system: RXF 393 renal
SF-268 CNS = system: SF-268 CNS
SF-295 CNS = system: SF-295 CNS
SF-539 CNS = system: SF-539 CNS
SK-MEL-2 melanoma = system: SK-MEL-2 melanoma
SK-MEL-28 melanoma = system: SK-MEL-28 melanoma
SK-MEL-5 melanoma = system: SK-MEL-5 melanoma
SK-OV-3 ovarian = system: SK-OV-3 ovarian
SN12C renal = system: SN12C renal
SNB-19 CNS = system: SNB-19 CNS
SNB-75 CNS = system: SNB-75 CNS
SR leukemia = system: SR leukemia
SW-620 colon = system: SW-620 colon
T-47D breast = system: T-47D breast
TK-10 renal = system: TK-10 renal
U251 CNS = system: U251 CNS
UACC-257 melanoma = system: UACC-257 melanoma
UACC-62 melanoma = system: UACC-62 melanoma
UO-31 renal = system: UO-31 renal

C#C[C@]1(O)CC[C@H]2[C@@H]3CC=C4c5sc(Nc6cc(C)cc(C)n6)nc5CC[C@]4(C)[C@H]3CC[C@@]21C was tested, and the GI50 (786-0 renal) was over 100 µM, the TGI (786-0 renal) was over 100 µM and the GI50 (A498 renal) was over 100 µM. For the same molecule, the TGI (A498 renal) was over 100 µM, the GI50 (A549 NSCLC) was over 100 µM and the TGI (A549 NSCLC) was over 100 µM. For the same molecule, the GI50 (ACHN renal) was over 100 µM, the TGI (ACHN renal) was over 100 µM and the GI50 (BT-549 breast) was over 100 µM. It also gave a TGI (BT-549 breast) of over 100 µM, a GI50 (CAKI-1 renal) of over 100 µM and a TGI (CAKI-1 renal) of over 100 µM. It also gave a GI50 (CCRF-CEM leukemia) of over 100 µM, a TGI (CCRF-CEM leukemia) of over 100 µM and a GI50 (COLO 205 colon) of over 100 µM. It also gave a TGI (COLO 205 colon) of over 100 µM, a GI50 (DU-145 prostate) of over 100 µM and a TGI (DU-145 prostate) of over 100 µM. It also gave a GI50 (EKVX NSCLC) of over 100 µM, a TGI (EKVX NSCLC) of over 100 µM and a GI50 (HCC-2998 colon) of over 100 µM. For the same molecule, the TGI (HCC-2998 colon) was over 100 µM, the GI50 (HCT-116 colon) was over 100 µM and the TGI (HCT-116 colon) was over 100 µM. The GI50 (HCT-15 colon) was over 100 µM, the TGI (HCT-15 colon) was over 100 µM and the GI50 (HL-60(TB) leukemia) was over 100 µM. For the same molecule, the TGI (HL-60(TB) leukemia) was over 100 µM, the GI50 (HOP-62 NSCLC) was over 100 µM and the TGI (HOP-62 NSCLC) was over 100 µM. The GI50 (HOP-92 NSCLC) was over 100 µM, the TGI (HOP-92 NSCLC) was over 100 µM and the GI50 (HS 578T breast) was over 100 µM. For the same molecule, the TGI (HS 578T breast) was over 100 µM, the GI50 (HT29 colon) was over 100 µM and the TGI (HT29 colon) was over 100 µM. It also gave a GI50 (IGROV1 ovarian) of over 100 µM, a TGI (IGROV1 ovarian) of over 100 µM and a GI50 (K-562 leukemia) of over 100 µM. It also gave a TGI (K-562 leukemia) of over 100 µM, a GI50 (KM12 colon) of over 100 µM and a TGI (KM12 colon) of over 100 µM. For the same molecule, the GI50 (LOX IMVI melanoma) was over 100 µM, the TGI (LOX IMVI melanoma) was over 100 µM and the GI50 (M14 melanoma) was over 100 µM. For the same molecule, the TGI (M14 melanoma) was over 100 µM, the GI50 (MALME-3M melanoma) was over 100 µM and the TGI (MALME-3M melanoma) was over 100 µM. For the same molecule, the GI50 (MCF7 breast) was over 100 µM, the TGI (MCF7 breast) was over 100 µM and the GI50 (MDA-MB-231 breast) was over 100 µM. For the same molecule, the TGI (MDA-MB-231 breast) was over 100 µM, the GI50 (MDA-MB-435) was over 100 µM and the TGI (MDA-MB-435) was over 100 µM. It also gave a GI50 (MDA-MB-468 breast) of over 100 µM, a TGI (MDA-MB-468 breast) of over 100 µM and a GI50 (MOLT-4 leukemia) of over 100 µM. The TGI (MOLT-4 leukemia) was over 100 µM, the GI50 (NCI-H226 lung) was over 100 µM and the TGI (NCI-H226 lung) was over 100 µM. The GI50 (NCI-H23 lung) was over 100 µM, the TGI (NCI-H23 lung) was over 100 µM and the GI50 (NCI-H460 lung) was over 100 µM. It also gave a TGI (NCI-H460 lung) of over 100 µM, a GI50 (NCI-H522 lung) of over 100 µM and a TGI (NCI-H522 lung) of over 100 µM. The GI50 (NCI/ADR-RES ovarian) was over 100 µM, the TGI (NCI/ADR-RES ovarian) was over 100 µM and the GI50 (OVCAR-3 ovarian) was over 100 µM. For the same molecule, the TGI (OVCAR-3 ovarian) was over 100 µM, the GI50 (OVCAR-4 ovarian) was over 100 µM and the TGI (OVCAR-4 ovarian) was over 100 µM. For the same molecule, the GI50 (OVCAR-5 ovarian) was over 100 µM, the TGI (OVCAR-5 ovarian) was over 100 µM and the GI50 (OVCAR-8 ovarian) was over 100 µM. It also gave a TGI (OVCAR-8 ovarian) of over 100 µM, a GI50 (PC-3 prostate) of over 100 µM and a TGI (PC-3 prostate) of over 100 µM. For the same molecule, the GI50 (RPMI-8226 leukemia) was over 100 µM, the TGI (RPMI-8226 leukemia) was over 100 µM and the GI50 (RXF 393 renal) was over 100 µM. For the same molecule, the TGI (RXF 393 renal) was over 100 µM, the GI50 (SF-268 CNS) was over 100 µM and the TGI (SF-268 CNS) was over 100 µM. It also gave a GI50 (SF-295 CNS) of over 100 µM, a TGI (SF-295 CNS) of over 100 µM and a GI50 (SF-539 CNS) of over 100 µM. For the same molecule, the TGI (SF-539 CNS) was over 100 µM, the GI50 (SK-MEL-2 melanoma) was over 100 µM and the TGI (SK-MEL-2 melanoma) was over 100 µM. It also gave a GI50 (SK-MEL-28 melanoma) of over 100 µM, a TGI (SK-MEL-28 melanoma) of over 100 µM and a GI50 (SK-MEL-5 melanoma) of over 100 µM. It also gave a TGI (SK-MEL-5 melanoma) of over 100 µM, a GI50 (SK-OV-3 ovarian) of over 100 µM and a TGI (SK-OV-3 ovarian) of over 100 µM. For the same molecule, the GI50 (SN12C renal) was over 100 µM, the TGI (SN12C renal) was over 100 µM and the GI50 (SNB-19 CNS) was over 100 µM. For the same molecule, the TGI (SNB-19 CNS) was over 100 µM, the GI50 (SNB-75 CNS) was over 100 µM and the TGI (SNB-75 CNS) was over 100 µM. For the same molecule, the GI50 (SR leukemia) was over 100 µM, the TGI (SR leukemia) was over 100 µM and the GI50 (SW-620 colon) was over 100 µM. For the same molecule, the TGI (SW-620 colon) was over 100 µM, the GI50 (T-47D breast) was over 100 µM and the TGI (T-47D breast) was over 100 µM. The GI50 (TK-10 renal) was over 100 µM, the TGI (TK-10 renal) was over 100 µM and the GI50 (U251 CNS) was over 100 µM. It also gave a TGI (U251 CNS) of over 100 µM, a GI50 (UACC-257 melanoma) of over 100 µM and a TGI (UACC-257 melanoma) of over 100 µM. It also gave a GI50 (UACC-62 melanoma) of over 100 µM, a TGI (UACC-62 melanoma) of over 100 µM and a GI50 (UO-31 renal) of over 100 µM. For the same molecule, the TGI (UO-31 renal) was over 100 µM.
